Patent US20180344639A1, “HYPOXIA-TARGETED POLYMERIC MICELLES FOR CANCER THERAPY AND IMAGING” (priority 2012, published 2018)

Assays:
[1] = Encapsulation efficiency of drug in PMC of Example I by dialysis and UV/Vis absorbance; assay type: physicochemical; settings: PMC from Example I; dialysis 10,000 MWCO; tris buffer (pH 7.4) given for Drug A only
Description: (§1) The polymer is dissolved in deionized water or an aqueous buffer at a concentration of 0.010 g/mL. Drugs A is dissolved in DMSO at a concentration of 5 μg/μl. Drug A is added dropwise to the polymer solution with constant stirring at room temperature. The drugs are added over the course of 60 minutes resulting in a 2-5 fold molar excess over polymer. The solution is centrifuged to remove any precipitates and transferred to dialysis tubing with 10,000 MWCO. The solution is dialyzed against an aqueous buffer (50× volume) for 30 minutes.
(§2) The absorbance of the polymer-drug solution and dialysis buffer are recorded and compared to respective pre-dialysis samples by a UV/Vis spectrophotometer (polymer absorbance=280 nm; Drug A absorbance=450 nm). The encapsulation efficiency is calculated from the change in absorbance of the drug after this initial dialysis. The polymer-drug solution is dialyzed further with fresh buffer (50× volume) with multiple readings over the course of 72 hours with 4 buffer changes. The rate at which the drug is released from the polymeric micelle is calculated by the change in absorbance of the drug over time from the polymer-drug solution and dialysis buffer.
(§3) Encapsulation of Drug B is carried out by the same dialysis procedure as described in Example III for Drug A. Drug B is dissolved in DMSO to a stock solution of 2.5 mg/ml. […]

[2] = Release of drug from the polymeric micelle during dialysis, by change in absorbance; assay type: physicochemical; settings: PMC from Example I; 24 hours dialysis; tris buffer (pH 7.4) given for Drug A only
Description: as §1, §2, §3

CCCNC(=O)c1c(C)[nH]c(/C=C2\C(=O)Nc3ccc(F)cc32)c1C [Drug A]
Encapsulation efficiency [1]: greater than 80%
drug released [2]: 50%
